Columns and labels:
[1] = Compound toxicity, ATPLite total ATP levels; format: cell-based; conditions: human, HepG2 cells; concentration reducing total ATP levels by 50% relative to no drug controls; ATPLite three days after compound addition
Experimental: Compound toxicity is evaluated by seeding cells at 15,000 cells/well and treating with compound as described above.

HBV = assay: HepAD38 anti-HBV assay: reduction of viral product accumulation (virion DNA qPCR, HBsAg/HBeAg ELISA); format: cell-based; conditions: Hepatitis B virus, 120 h; HepAD38 cells; concentration reducing viral product accumulation by 50% relative to no drug controls; harvest five days after compound addition; read-out: HepAD38 EC50
Summary of the method: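 Tetracycline-free HepAD38 cells treated 5 days with compound (1:200 DMSO dilution), or 8 days with media and compound refreshed on d2 and d5. Virion DNA quantified by qPCR; HBsAg or HBeAg by ELISA. EC50 is the concentration reducing viral product accumulation 50% versus no-drug controls.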

Row | SMILES | CC50 at 3 days [1] [µM] | EC50 (HBV) [µM]
1 | O=S(=O)(N[C@H]1CC2=C(c3ccn(C(F)F)n3)[C@H](c3ccc(F)cc3Cl)N=C(c3nccs3)N2C1)[C@H]1CC[C@](O)(CO)CC1 [Example 100] | > 25 | < 0.1
2 | N#CCCCS(=O)(=O)N[C@H]1CC2=C(c3ccn(C(F)F)n3)[C@H](c3ccc(F)cc3Cl)N=C(c3nccs3)N2C1 [Example 135] | > 25 | < 0.1
3 | N#CCC1(O)CC2=C(c3ccn(C(F)F)n3)[C@H](c3ccc(F)cc3Cl)N=C(c3nccs3)N2C1 (stereo partly shown) [Example 140] | > 25 | < 0.1
4 | O=S1(=O)CCN(S(=O)(=O)N[C@H]2CC3=C(c4ccn(C(F)F)n4)[C@H](c4ccc(F)cc4Cl)N=C(c4nccs4)N3C2)CC1 [Example 150] | > 25 | < 0.1
5 | CS(=O)(=O)N1CCN(S(=O)(=O)N[C@H]2CC3=C(c4ccn(C(F)F)n4)[C@H](c4ccc(F)cc4Cl)N=C(c4nccs4)N3C2)CC1 [Example 151] | > 25 | < 0.1
6 | O=S(=O)(N[C@H]1CC2=C(c3ccn(C(F)F)n3)[C@H](c3ccc(F)cc3Cl)N=C(c3nccs3)N2C1)N[C@H]1CC[C@@H](O)CC1 [Example 154] | > 25 | < 0.1
7 | O=S(=O)(N[C@H]1CC2=C(c3ccn(C(F)F)n3)[C@H](c3ccc(F)cc3Cl)N=C(c3nccs3)N2C1)N[C@H]1CC[C@H](O)CC1 [Example 155] | > 25 | < 0.1
8 | O=S(=O)(N[C@H]1CC2=C(c3ccn(C(F)F)n3)[C@H](c3ccc(F)cc3Cl)N=C(c3nccs3)N2C1)N[C@H]1C[C@@H](O)C1 [Example 156] | > 25 | < 0.1
9 | O=S(=O)(N[C@H]1CC2=C(c3ccn(C(F)F)n3)[C@H](c3ccc(F)cc3Cl)N=C(c3nccs3)N2C1)N[C@H]1C[C@H](O)C1 [Example 157] | > 25 | < 0.1
10 | O=C(N[C@H]1CC2=C(c3ccn(C(F)F)n3)[C@H](c3ccc(F)cc3Cl)N=C(c3nccs3)N2C1)c1ccccc1 [Example 213] | 10 to 25 | < 0.1
11 | O=C(N[C@H]1CC2=C(c3ccn(C(F)F)n3)[C@H](c3ccc(F)cc3Cl)N=C(c3nccs3)N2C1)c1ccccn1 [Example 214] | 10 to 25 | < 0.1
12 | O=C(N[C@H]1CC2=C(c3ccn(C(F)F)n3)[C@H](c3ccc(F)cc3Cl)N=C(c3nccs3)N2C1)c1nccs1 [Example 235] | > 25 | < 0.1
13 | CC1(O)CCN(S(=O)(=O)N[C@H]2CC3=C(c4ccn(C(F)F)n4)[C@H](c4ccc(F)cc4Cl)N=C(c4nccs4)N3C2)CC1 [Example 256] | > 25 | < 0.1
14 | O=S(=O)(N[C@H]1CC2=C(c3ccn(C(F)F)n3)[C@H](c3ccc(F)cc3Cl)N=C(c3nccs3)N2C1)N1CCC(O)(c2ccccc2)CC1 [Example 257] | 10 to 25 | < 0.1
15 | O=S(=O)(N[C@H]1CC2=C(c3ccn(C(F)F)n3)[C@H](c3ccc(F)cc3Cl)N=C(c3nccs3)N2C1)N1CCC(O)(c2ccncc2)CC1 [Example 259] | > 25 | < 0.1
16 | O=S(=O)(N[C@H]1CC2=C(c3ccn(C(F)F)n3)[C@H](c3ccc(F)cc3Cl)N=C(c3nccs3)N2C1)N1CCC(O)(c2nccs2)CC1 [Example 260] | > 25 | < 0.1
17 | O=S(=O)(N[C@H]1CC2=C(c3ccn(C(F)F)n3)[C@H](c3ccc(F)cc3Cl)N=C(c3nccs3)N2C1)N1CCC(O)(c2ncco2)CC1 [Example 261] | > 25 | < 0.1
18 | O=S(=O)(N[C@H]1CC2=C(c3ccn(C(F)F)n3)[C@H](c3ccc(F)cc3Cl)N=C(c3nccs3)N2C1)N1CCC(O)(c2cccnc2)CC1 [Example 264] | > 25 | < 0.1
19 | O=S(=O)(N[C@H]1CC2=C(c3ccn(C(F)F)n3)[C@H](c3ccc(F)cc3Cl)N=C(c3nccs3)N2C1)N1CCC(O)(c2ccccn2)CC1 [Example 266] | > 25 | < 0.1
20 | O=S(=O)(N[C@H]1CC2=C(c3ccn(C(F)F)n3)[C@H](c3ccc(F)cc3Cl)N=C(c3nccs3)N2C1)N1CCC(O)(C2CCCC2)CC1 [Example 267] | > 25 | < 0.1
21 | O=S(=O)(N[C@H]1CC2=C(c3ccn(C(F)F)n3)[C@H](c3ccc(F)cc3Cl)N=C(c3nccs3)N2C1)N1CC(O)(c2ccccn2)C1 [Example 269] | > 25 | < 0.1
22 | O=S(=O)(N[C@H]1CC2=C(c3ccn(C(F)F)n3)[C@H](c3ccc(F)cc3Cl)N=C(c3nccs3)N2C1)N1CCC(O)(C2CC2)CC1 [Example 270] | < 10 | < 0.1
23 | O=S(=O)(N[C@H]1CC2=C(c3ccn(C(F)F)n3)[C@H](c3ccc(F)cc3Cl)N=C(c3nccs3)N2C1)N1CCCC1 [Example 271] | 10 to 25 | < 0.1
24 | O=S(=O)(N[C@H]1CC2=C(c3ccn(C(F)F)n3)[C@H](c3ccc(F)cc3Cl)N=C(c3nccs3)N2C1)N1CC2CC2C1 (stereo partly shown) [Example 273] | < 10 | < 0.1

Row | SMILES | CC50 at 3 days [1] [µM] | EC50 (HBV) [µM]
25 | O=S(=O)(N[C@H]1CC2=C(c3ccn(C(F)F)n3)[C@H](c3ccc(F)cc3Cl)N=C(c3nccs3)N2C1)N1C[C@@H](F)[C@@H](F)C1 [Example 274] | < 10 | < 0.1
26 | O=S(=O)(N[C@H]1CC2=C(c3ccn(C(F)F)n3)[C@H](c3ccc(F)cc3Cl)N=C(c3nccs3)N2C1)N1C[C@H](F)[C@@H](F)C1 [Example 275] | 10 to 25 | < 0.1
27 | O=S(=O)(N[C@H]1CC2=C(c3ccn(C(F)F)n3)[C@H](c3ccc(F)cc3Cl)N=C(c3nccs3)N2C1)N1CCC(F)(F)C1 [Example 276] | < 10 | < 0.1
28 | O=S(=O)(CCCCO)N[C@H]1CC2=C(c3ccn(C(F)F)n3)[C@H](c3ccc(F)cc3Cl)N=C(c3nccs3)N2C1 [Example 280] | > 25 | < 0.1
29 | CC1(O)CCN(S(=O)(=O)N[C@H]2CC3=C(c4ccn(C(F)F)n4)[C@H](c4ccc(F)cc4Cl)N=C(c4nccs4)N3C2)C1 (stereo partly shown) [Example 282] | > 25 | < 0.1
30 | O=S(=O)(N[C@H]1CC2=C(c3ccn(C(F)F)n3)[C@H](c3ccc(F)cc3Cl)N=C(c3nccs3)N2C1)N1CCCCC12CCC2 [Example 285] | > 25 | < 0.1
31 | O=S(=O)(N[C@H]1CC2=C(c3ccn(C(F)F)n3)[C@H](c3ccc(F)cc3Cl)N=C(c3nccs3)N2C1)N1CCC[C@@H]1C(F)(F)F [Example 287] | 10 to 25 | < 0.1
32 | CC(C)(O)[C@@H]1CCCN1S(=O)(=O)N[C@H]1CC2=C(c3ccn(C(F)F)n3)[C@H](c3ccc(F)cc3Cl)N=C(c3nccs3)N2C1 [Example 289] | > 25 | < 0.1
33 | CS(=O)(=O)NC1CCN(S(=O)(=O)N[C@H]2CC3=C(c4ccn(C(F)F)n4)[C@H](c4ccc(F)cc4Cl)N=C(c4nccs4)N3C2)C1 (stereo partly shown) [Example 290] | > 25 | < 0.1
34 | O=C1CCCN1C1CCN(S(=O)(=O)N[C@H]2CC3=C(c4ccn(C(F)F)n4)[C@H](c4ccc(F)cc4Cl)N=C(c4nccs4)N3C2)CC1 [Example 293] | > 25 | < 0.1
35 | O=C1NCCN1C1CCN(S(=O)(=O)N[C@H]2CC3=C(c4ccn(C(F)F)n4)[C@H](c4ccc(F)cc4Cl)N=C(c4nccs4)N3C2)CC1 [Example 294] | > 25 | < 0.1
36 | O=S(=O)(N[C@H]1CC2=C(c3ccn(C(F)F)n3)[C@H](c3ccc(F)cc3Cl)N=C(c3nccs3)N2C1)N1CCCC[C@@H]1C(F)(F)F [Example 301] | > 25 | < 0.1
37 | O=C1OCCN1C1CCN(S(=O)(=O)N[C@H]2CC3=C(c4ccn(C(F)F)n4)[C@H](c4ccc(F)cc4Cl)N=C(c4nccs4)N3C2)CC1 [Example 302] | > 25 | < 0.1
38 | O=S(=O)(N[C@H]1CC2=C(c3ccn(C(F)F)n3)[C@H](c3ccc(F)cc3Cl)N=C(c3nccs3)N2C1)N1CCC(O)(c2ncccn2)CC1 [Example 303] | > 25 | < 0.1
39 | Cn1ccc(C2(O)CCN(S(=O)(=O)N[C@H]3CC4=C(c5ccn(C(F)F)n5)[C@H](c5ccc(F)cc5Cl)N=C(c5nccs5)N4C3)CC2)n1 [Example 304] | > 25 | < 0.1
40 | O=S(=O)(NCCc1ccccn1)N[C@H]1CC2=C(c3ccn(C(F)F)n3)[C@H](c3ccc(F)cc3Cl)N=C(c3nccs3)N2C1 [Example 309] | > 25 | < 0.1
41 | CS(=O)(=O)c1ccc(S(=O)(=O)N[C@H]2CC3=C(c4ccn(C(F)F)n4)[C@H](c4ccc(F)cc4Cl)N=C(c4nccs4)N3C2)cc1 [Example 323] | 10 to 25 | < 0.1
42 | O=S(=O)(N[C@H]1CC2=C(c3ccn(C(F)F)n3)[C@H](c3ccc(F)cc3Cl)N=C(c3nccs3)N2C1)C1CCC1 [Example 324] | 10 to 25 | < 0.1
43 | O=Cc1ccc(S(=O)(=O)N[C@H]2CC3=C(c4ccn(C(F)F)n4)[C@H](c4ccc(F)cc4Cl)N=C(c4nccs4)N3C2)cc1 [Example 332] | > 25 | < 0.1
44 | O=S(=O)(N[C@H]1CC2=C(c3ccn(C(F)F)n3)[C@H](c3ccc(F)cc3Cl)N=C(c3nccs3)N2C1)c1ccc(C(O)c2ccccn2)cc1 (stereo partly shown) [Example 334] | < 10 | < 0.1
45 | CS(=O)(=O)CS(=O)(=O)N[C@H]1CC2=C(c3ccn(C(F)F)n3)[C@H](c3ccc(F)cc3Cl)N=C(c3nccs3)N2C1 [Example 335] | > 25 | < 0.1
46 | CS(=O)(=O)c1cccc(S(=O)(=O)N[C@H]2CC3=C(c4ccn(C(F)F)n4)[C@H](c4ccc(F)cc4Cl)N=C(c4nccs4)N3C2)c1 [Example 336] | > 25 | < 0.1
47 | CS(=O)(=O)C1CN(S(=O)(=O)N[C@H]2CC3=C(c4ccn(C(F)F)n4)[C@H](c4ccc(F)cc4Cl)N=C(c4nccs4)N3C2)C1 [Example 337] | > 25 | < 0.1
